# Activity calls are given as the source filed them. The calls are words filed in the database; no cut-off is given here.
# Tests used:
# [1] = target: Alpha-synuclein (Homo sapiens) (UniProt P37840); test: Inhibition of human alpha-synuclein aggregation expressed in transgenic Caenorhabditis elegans NL5901 assessed as decrease in alpha-synuclein expression at 1% after 48 hrs by fluorescence microscopy analysis
# [2] = target: Alpha-synuclein (Homo sapiens) (UniProt P37840); test: Inhibition of human alpha-synuclein aggregation expressed in transgenic Caenorhabditis elegans NL5901 by measuring fluorescence intensity at 1% incubated for 48 hrs by fluorescence microscopy analysis relative to control
SMILES,inhibition [1],inhibition [2],fold change (FC) [2]
CCOC(=O)c1cnc2c(cnn2-c2ccccc2)c1N1CCN(c2cc(=O)[nH]c3ccccc23)CC1,Active,14.7%,
CCOC(=O)c1cnc2c(cnn2-c2ccc(F)c(F)c2)c1N1CCN(c2ncccc2C#N)CC1,Active,13.5%,
CCOC(=O)c1cnc2c(cnn2-c2cccc(C(F)(F)F)c2)c1N1CCN(c2ncccc2C#N)CC1,Active,27.3%,
CCOC(=O)c1cnc2c(cnn2-c2ccccc2)c1N1CCN(C)CC1,Active,53%,2.4
CCOC(=O)c1cnc2c(cnn2-c2ccccc2)c1N1CCN(c2cc(C(F)(F)F)nc3ncnn23)CC1,Active,14.1%,
CCOC(=O)c1cnc2c(cnn2-c2ccccc2F)c1N1CCN(c2ncccc2C#N)CC1,Active,26.1%,
CCOC(=O)c1cnc2c(cnn2-c2ccccc2)c1N1CCN(c2ncccc2C#N)CC1,Active,33.1%,
CCOC(=O)c1cnc2c(cnn2-c2ccccc2)c1N1CCN(c2ccnc3cc(Cl)ccc23)CC1,Active,39.2%,1.7
CCOC(=O)c1cnc2c(cnn2-c2ccccc2)c1N1CCOCC1,Active,30.2%,
CCOC(=O)c1cnc2c(cnn2-c2ccccc2)c1N1CCN(c2cc(C)nc3ncnn23)CC1,Active,31.9%,
CCOC(=O)c1cnc2c(cnn2-c2ccccc2)c1N1CCCCC1,Active,47.7%,1.5
CCOC(=O)c1cnc2c(cnn2-c2ccccc2)c1Oc1cccc2cccnc12,Active,24.4%,
CCOC(=O)c1cnc2c(cnn2-c2ccccc2)c1N1CCN(S(=O)(=O)c2ccc(NC(C)=O)cc2)CC1,Active,17.7%,
